As a reminder, the IC50 is the midpoint of a concentration-inhibition curve.

Common to all, as to format: cell-based
The subject of one experiment is C3A. Description: Cell viability CellTiter-Glo, C3A. The note with it: Homo sapiens, liver cancer. On the procedure:
(§1) Cell viability was measured by using the Promega CellTiter-Glo kit, the kit reflected cell viability by directly measuring intracellular ATP content. Different cancer cells were cultured in culture medium, and the 50% inhibitory concentration IC50 of the compound SJ2858 was measured by Promega CellTiter-Glo kit. The name source and culture condition of each tumor cell line were as follows:
Cell line C3A (ATCC, No. CRL-10741) was cultured in EMEM medium containing 10% fetal bovine serum (+P/S);
(ATP-based viability assays read luminescence as a measure of living cells.)

Experiment [1] has as its system oxidative phosphorylation pathway of mitochondria. Kind of experiment: Cellular oxygen consumption (OCR), XFe metabolic analysis system. The conditions noted are these: NCI-H82 cell; 73.2 μM; within half an hour; FIG. 1. How it is done:
The oxygen required by cell was mainly consumed in the mitochondria respiratory chain, so the measurement of cellular oxygen consumption (OCR, oxygen consumption rate) could directly reflect the activity of the oxidative phosphorylation pathway of mitochondria. In this experiment, the XFe metabolic analysis system was used to measure the oxygen consumption of NCI-H82 cell in the presence or absence of Compound SJ2858 (baicalein) and Compound SJ2775 (baicalin).
Rotenone (abbreviated as RO, 0.5 μM) is a known inhibitor of mitochondria oxidative phosphorylation pathway complex I, Antimycin A (abbreviated as AA, 0.5 μM) is a known inhibitor of mitochondria oxidative phosphorylation pathway complex III. Compound SJ2858, 73.2 μM; Compound SJ2775, 118.2 μM.

A further experiment deals with BT-549. Description: Cell viability CellTiter-Glo, BT-549. The note with it: Homo sapiens; BT-549, breast cancer. On the procedure:
as §1
Cell line BT-549 (ATCC, No. HTB-122) was cultured in RPMI1640 medium containing 10% fetal bovine serum and 0.023 IU/ml human insulin (+P/S);

The next experiment deals with SF126. Description: Cell viability CellTiter-Glo, SF126. The conditions noted are these: Homo sapiens, SF-126; SF126, brain cancer. On the procedure: as §1
Cell line SF126 (JCRB, No. IFO50286) was cultured in EMEM medium containing 10% fetal bovine serum (+P/S);

The test system of a further experiment is OCI-AML-3. Description: Cell viability CellTiter-Glo, OCI-AML-3. The note with it: Homo sapiens; OCI-AML-3, leukemia. On the procedure: as §1
Cell line OCI-AML-3 (DSMZ, No. ACC-582) was cultured in RPMI1640 medium containing 20% fetal bovine serum (+P/S);

The subject of a further experiment is DU 145. Description: Cell viability CellTiter-Glo, DU 145. The conditions noted are these: Homo sapiens; DU 145, prostate cancer. How it is done: as §1
Cell line DU 145 (ATCC, No. HTB-81) was cultured in EMEM medium containing 10% fetal bovine serum (+P/S);

For another experiment, the system named is D283 Med. Kind of experiment: Cell viability CellTiter-Glo, D283 Med. The conditions noted are these: Homo sapiens, brain cancer. How it is done:
as §1
Cell line D283 Med (ATCC, No. HTB-185) was cultured in EMEM medium containing 10% fetal bovine serum (+P/S);

A further experiment relates to 786-O. Description: Cell viability CellTiter-Glo, 786-O. The note with it: Homo sapiens, 786-0, kidney cancer. How it is done:
as §1
Cell line 786-O (ATCC, No. CRL-1932) was cultured in RPMI1640 medium containing 10% fetal bovine serum (+P/S);

The test system of a further experiment is CHL-1. Description: Cell viability CellTiter-Glo, CHL-1. The note with it: Homo sapiens; CHL-1, melanoma. On the procedure:
as §1
Cell line CHL-1 (ATCC, No. CRL-9446) was cultured in DMEM medium containing 10% fetal bovine serum (+P/S);

A further experiment relates to H9. Description: Cell viability CellTiter-Glo, H9. The note with it: Homo sapiens; H9, lymphoma. How it is done:
as §1
Cell line H9 (ATCC, No. HTB-176) was cultured in RPMI1640 medium containing 10% fetal bovine serum (+P/S);

The test system of another experiment is LS 180. Description: Cell viability CellTiter-Glo, LS 180. The conditions noted are these: Homo sapiens, LS180; LS 180, intestinal cancer. On the procedure: Cell viability was measured by using the Promega CellTiter-Glo kit, the kit reflected cell viability by directly measuring intracellular ATP content. Different cancer cells were cultured in culture medium, and the 50% inhibitory concentration IC50 of the compound SJ2858 was measured by Promega CellTiter-Glo kit. The name source and culture condition of each tumor cell line were as follows: […]

The next experiment relates to A-375. Description: Cell viability CellTiter-Glo, A-375. The note with it: Homo sapiens; A-375, melanoma. On the procedure: as §1
Cell line A-375 (ATCC, No. CRL-1619) was cultured in DMEM medium containing 10% fetal bovine serum (+P/S);

Another experiment deals with MIA PaCa-2. Kind of experiment: Cell viability CellTiter-Glo, MIA PaCa-2. The conditions noted are these: Homo sapiens; MIA PaCa-2, pancreatic cancer. On the procedure: as §1
Cell line MIA PaCa-2 (ATCC, No. CRL-1420) was cultured in DMEM medium containing 10% fetal bovine serum (+P/S);

The next experiment has as its system ATN-1. Description: Cell viability CellTiter-Glo, ATN-1. The note with it: Homo sapiens; ATN-1, leukemia. How it is done:
as §1
Cell line ATN-1 (RIKEN, No. RBRC-RCB1440) was cultured in RPMI1640 medium containing 10% fetal bovine serum and 0.1 mM NEAA (+P/S);

In another experiment the test system is MDA-MB-453. Description: Cell viability CellTiter-Glo, MDA-MB-453. The conditions noted are these: Homo sapiens; MDA-MB-453, breast cancer. How it is done:
as §1
Cell line MDA-MB-453 (ATCC, No. HTB-131) was cultured in Leibovitz's L-15 medium containing 10% fetal bovine serum (+P/S);

A further experiment deals with NCI-H 1793. Kind of experiment: Cell viability CellTiter-Glo, NCI-H 1793. The note with it: Homo sapiens, NCI-H1793; NCI-H 1793, lung cancer. How it is done:
as §1
Cell line NCI-H1793 (ATCC, No. CRL-5896) was cultured in HITES medium containing 5% fetal bovine serum (+P/S);

The subject of another experiment is CCRF-CEM. Description: Cell viability CellTiter-Glo, CCRF-CEM. The note with it: Homo sapiens, leukemia. How it is done:
as §1
Cell line CCRF-CEM (ATCC, No. CCL-119) was cultured in RPMI1640 medium containing 10% fetal bovine serum (+P/S);

The next experiment relates to Gp2D. Kind of experiment: Cell viability CellTiter-Glo, Gp2D. The note with it: intestinal cancer. On the procedure: as §1
Cell line Gp2D (ECACC, No. 95090714) was cultured in DMEM medium containing 10% fetal bovine serum (+P/S);

The subject of the next experiment is HCC15. Kind of experiment: Cell viability CellTiter-Glo, HCC15. The note with it: HCC15, lung cancer. How it is done: as §1
Cell line HCC15 (KCLB, No. 70015) was cultured in RPMI1640 medium containing 10% fetal bovine serum (+P/S);

The subject of a further experiment is U-937. Description: Cell viability CellTiter-Glo, U-937. The note with it: Homo sapiens; U-937, lymphoma. On the procedure: as §1
Cell line U-937 (ATCC, No. CRL-1593.2) was cultured in RPMI1640 medium containing 10% fetal bovine serum (+P/S);

Molecules are shown by their SMILES.

Regarding `O=c1cc(-c2ccccc2)oc2cc(O)c(O)c(O)c12` [Compound SJ2858, baicalein], the IC50 was determined as 27 µM in the experiment with C3A; 18.1 µM in the experiment on BT-549; 14 µM in the experiment with SF126; 62.3 µM in the experiment on OCI-AML-3; 37.8 µM in the experiment on DU 145; 12.9 µM with D283 Med. The IC50 in the experiment on 786-O is 10.6 µM; with CHL-1 it was 9.5 µM; with H9 it was 19 µM; with LS 180 it was 17.4 µM; in the experiment on A-375, 10.6 µM; in the experiment with MIA PaCa-2 it was 19.7 µM. Besides, the IC50 in the experiment on ATN-1 turned out to be 25.4 µM; with MDA-MB-453, 75.3 µM; in the experiment on NCI-H 1793 it was 35.2 µM; in the experiment on CCRF-CEM, 14.7 µM; in the experiment on Gp2D, 14.9 µM; in the experiment with HCC15 it was 18.9 µM. The IC50 with U-937 was 39.2 µM. Also, in experiment [1], the “Inhibition of oxygen consumption (in words)” value is reported as “significantly inhibit”.

(Values after US20230098254A1, “SCUTELLARIAE RADIX COMPOUNDS AND USE THEREOF FOR INHIBITING OXIDATIVE PHOSPHORYLATION PATHWAY OF MITOCHONDRIA” (priority 2020, published 2023).)
